# In article PMC2813863, “In Vivo Evaluation of α7 Nicotinic Acetylcholine Receptor Agonists [^11C]A-582941 and [^11C]A-844606 in Mice and Conscious Monkeys” (PLoS ONE, 2010):
# Where “and” joins values, the source holds several entries; their conditions need not be identical. Equal values may be shown once. Read-outs that look alike come from different tables or passages of the source.
# Tests used:
# [1] = assay type: in vivo, rhesus monkeys (Macaca mulatta); settings: monkey
# Protocol: Blood samples were centrifuged to separate the plasma, weighed, and subjected to radioactivity measurement. For metabolite analysis, methanol was added to some plasma samples, the resulting solutions were centrifuged, and the supernatants were developed with TLC plates (AL SIL G/UV; Whatman, Kent, UK) using a mobile phase of dichloromethane/diethyl ether/ethanol/triethylamine (20/20/2/2, v/v/v/v). At each sampling time point, the ratio of radioactivity in the unmetabolized fraction to that in the total plasma (metabolite plus unmetabolite) was determined using a phosphoimaging plate (BAS-1500 MAC; Fuji Film Co., Tokyo, Japan). The pTACs corrected for metabolite were obtained. The tTACs in each region of interest (ROI) in the brain were calculated as the %ID/ml or as a standardized uptake value (SUV), (activity/ml tissue)/(injected activity/g body weight). Using the tTACs and the metabolite-corrected pTAC, the V T for each tracer was evaluated by Logan graphical analysis.
# [2] = assay type: in vivo, mice; settings: mice, i.v.
# Protocol: Each tracer was intravenously injected into mice, and then the animals were killed by cervical dislocation at 1, 5, 15, 30 and 60 min after injection (n = 4). The body weight of the mice was 34.7±1.2 g. The injected doses of tracers were 2 MBq/0.049–0.051 nmol. Blood was collected by heart puncture and tissues were harvested. The carbon-11 in the samples was counted with an auto-gamma-counter (LKB Wallac Compu-gamma 1282CS, Turku, Finland) and the tissues were weighed. The tissue uptake of carbon-11 was expressed as the %ID/g.
# [3] = molecular target: α7 nAChRs (Mus musculus, UniProt P49582); settings: in vivo
# Protocol: In the other group of mice, a blocking experiment to determine the α7 nAChRs-specific regional brain uptake of the tracers was carried out. Each tracer (2 MBq/0.055–0.096 nmol) was co-injected with each of the following blockers into mice, and 15 ([^11C]A-582941) or 30 ([^11C]A-844606) min later the mice were killed (n = 5) and the tissue uptake of ^11C was expressed as the %ID/g. […] Each blocker was dissolved in 1N HCl to 40 mg/ml and diluted up to 0.4 mg/ml with saline. The co-injected dose was 1 mg/kg. In the control mice the same amount of 0.01 N HCl in saline was co-injected.
# [4] = mice
# Protocol: Each tracer (180 MBq/3.0–13.4 nmol) was intravenously injected into mice, and 15 and 30 min later the animals were killed by cervical dislocation (n = 3). Blood was removed by heart puncture using a heparinized syringe, and the brain was removed. The blood was centrifuged at 7,000×g for 1 min at 4°C to obtain plasma, which was denatured with 5 volume of CH3CN. The mixture was centrifuged under the same conditions, and the precipitate was re-suspended in 0.5 ml of CH3CN, followed by centrifugation. This procedure was repeated three times. The cerebral cortex (approximately 200 mg) was homogenized in 1.0 ml of 50% CH3CN. The homogenate was then treated as described above. The combined supernatant was diluted with 2 volumes of water and then analyzed by HPLC with a radioactivity detector (FLO-ONE 150TR; Packard Instrument, Meriden, CT). A Radial-Pak C18 column equipped with an RCM 8×10 module (8 mm ×100 mm; Waters, Milford, MA) was used with a mixture of CH3CN/H2O/triethyl amine (40/60/0.1 for [^11C]A-582941 and 70/30/0.1 for [^11C]A-844606, v/v/v) as the mobile phase at a flow rate of 2 ml/min. The elution profile was monitored with a radioactivity detector. The retention times of [^11C]A-582941 and [^11C]A-844606 were 6.4 and 8.8 min, respectively. The recovery in the eluate of the injected radioactivity was essentially quantitative.
# Sequence of α7 nAChRs (P49582 23-502): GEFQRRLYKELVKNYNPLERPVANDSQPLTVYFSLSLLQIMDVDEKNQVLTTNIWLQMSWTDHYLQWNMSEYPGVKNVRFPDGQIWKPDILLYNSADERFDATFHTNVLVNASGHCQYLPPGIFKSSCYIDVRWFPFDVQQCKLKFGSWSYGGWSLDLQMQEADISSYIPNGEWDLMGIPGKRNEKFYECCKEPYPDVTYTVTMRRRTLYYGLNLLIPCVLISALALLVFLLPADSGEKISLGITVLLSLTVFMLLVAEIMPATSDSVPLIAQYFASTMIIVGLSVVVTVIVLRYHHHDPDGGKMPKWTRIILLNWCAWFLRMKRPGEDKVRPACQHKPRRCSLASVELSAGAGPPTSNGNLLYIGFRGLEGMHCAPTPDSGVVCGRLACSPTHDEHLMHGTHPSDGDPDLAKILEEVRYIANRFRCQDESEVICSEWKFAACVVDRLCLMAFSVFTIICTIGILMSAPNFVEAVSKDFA
smiles,measurement,setting,value
"[11CH3]N1CC2CN(c3ccc(-c4ccccc4)nn3)CC2C1 (centres unmarked) [[^11C]A-582941, 2-[^11C]Methyl-5-[6-phenylpyridazine-3-yl]octahydropyrrolo[3,4-c]pyrrole]",percentage of the unchanged form in plasma,"[1]; SSR180711-blocking condition (n = 1), 0.3 min",93.2%
same,percentage of the unchanged form in plasma,"[1]; SSR180711-blocking condition (n = 1), 0.7 min",93.9%
same,percentage of the unchanged form in plasma,"[1]; SSR180711-blocking condition (n = 1), 1.1 min",93.0%
same,percentage of the unchanged form in plasma,"[1]; SSR180711-blocking condition (n = 1), 6.0 min",74.2%
same,percentage of the unchanged form in plasma,"[1]; SSR180711-blocking condition (n = 1), 10 min",56.7%
same,percentage of the unchanged form in plasma,"[1]; SSR180711-blocking condition (n = 1), 30 min",28.3%
same,percentage of the unchanged form in plasma,"[1]; SSR180711-blocking condition (n = 1), 45 min",23.2%
same,percentage of the unchanged form in plasma,"[1]; SSR180711-blocking condition (n = 1), 60 min",20.4%
same,percentage of the unchanged form in plasma,"[1]; SSR180711-blocking condition (n = 1), 75 min",22.2%
same,percentage of the unchanged form in plasma,"[1]; SSR180711-blocking condition (n = 1), 90 min",15.9%
same,percentage of the unchanged form in plasma,"[1]; baseline, 10 min",71.6±4.1%
same,percentage of the unchanged form in plasma,"[1]; baseline, 30 min",42.8±7.8% and 42.8%
same,percentage of the unchanged form in plasma,"[1]; baseline, 45 min",34.0±7.4%
same,percentage of the unchanged form in plasma,"[1]; baseline, 60 min",26.9±5.3%
same,percentage of the unchanged form in plasma,"[1]; baseline, 75 min",23.0±3.4%
same,percentage of the unchanged form in plasma,"[1]; baseline, 90 min",19.2±2.6%
same,time of peak radioactivity in the brain,[2],5 min
same,"% Injected dose/g tissue, Blood",[2]; 1 min after injection,1.84±0.43 % Injected dose/g tissue
same,"% Injected dose/g tissue, Brain",[2]; 1 min after injection,2.61±0.33 % Injected dose/g tissue
same,"% Injected dose/g tissue, Heart",[2]; 1 min after injection,4.33±0.82 % Injected dose/g tissue
same,"% Injected dose/g tissue, Kidney",[2]; 1 min after injection,13.87±1.58 % Injected dose/g tissue
same,"% Injected dose/g tissue, Liver",[2]; 1 min after injection,3.59±0.45 % Injected dose/g tissue
same,"% Injected dose/g tissue, Lung",[2]; 1 min after injection,18.09±4.18 % Injected dose/g tissue
same,"% Injected dose/g tissue, Muscle",[2]; 1 min after injection,2.02±0.34 % Injected dose/g tissue
same,"% Injected dose/g tissue, Pancreas",[2]; 1 min after injection,4.65±0.76 % Injected dose/g tissue
same,"% Injected dose/g tissue, S. intestine",[2]; 1 min after injection,3.13±0.51 % Injected dose/g tissue
same,"% Injected dose/g tissue, Spleen",[2]; 1 min after injection,2.70±0.31 % Injected dose/g tissue
same,"% Injected dose/g tissue, Blood",[2]; 5 min after injection,0.89±0.04 % Injected dose/g tissue
same,"% Injected dose/g tissue, Brain",[2]; 5 min after injection,3.92±0.49 % Injected dose/g tissue
same,"% Injected dose/g tissue, Heart",[2]; 5 min after injection,2.16±0.13 % Injected dose/g tissue
same,"% Injected dose/g tissue, Kidney",[2]; 5 min after injection,8.77±0.79 % Injected dose/g tissue
same,"% Injected dose/g tissue, Liver",[2]; 5 min after injection,10.52±0.69 % Injected dose/g tissue
same,"% Injected dose/g tissue, Lung",[2]; 5 min after injection,12.52±8.59 % Injected dose/g tissue
same,"% Injected dose/g tissue, Muscle",[2]; 5 min after injection,1.40±0.16 % Injected dose/g tissue
same,"% Injected dose/g tissue, Pancreas",[2]; 5 min after injection,7.47±0.54 % Injected dose/g tissue
same,"% Injected dose/g tissue, S. intestine",[2]; 5 min after injection,4.49±0.60 % Injected dose/g tissue
same,"% Injected dose/g tissue, Spleen",[2]; 5 min after injection,5.53±0.38 % Injected dose/g tissue
same,"% Injected dose/g tissue, Blood",[2]; 15 min after injection,0.76±0.06 % Injected dose/g tissue
same,"% Injected dose/g tissue, Brain",[2]; 15 min after injection,3.63±0.28 % Injected dose/g tissue
same,"% Injected dose/g tissue, Heart",[2]; 15 min after injection,1.72±0.17 % Injected dose/g tissue
same,"% Injected dose/g tissue, Kidney",[2]; 15 min after injection,6.02±0.97 % Injected dose/g tissue
same,"% Injected dose/g tissue, Liver",[2]; 15 min after injection,12.38±1.68 % Injected dose/g tissue
same,"% Injected dose/g tissue, Lung",[2]; 15 min after injection,7.02±0.10 % Injected dose/g tissue
same,"% Injected dose/g tissue, Muscle",[2]; 15 min after injection,1.06±0.09 % Injected dose/g tissue
same,"% Injected dose/g tissue, Pancreas",[2]; 15 min after injection,5.80±0.80 % Injected dose/g tissue
same,"% Injected dose/g tissue, S. intestine",[2]; 15 min after injection,4.61±0.60 % Injected dose/g tissue
same,"% Injected dose/g tissue, Spleen",[2]; 15 min after injection,5.13±0.72 % Injected dose/g tissue
same,"% Injected dose/g tissue, Blood",[2]; 30 min after injection,0.64±0.06 % Injected dose/g tissue
same,"% Injected dose/g tissue, Brain",[2]; 30 min after injection,2.68±0.29 % Injected dose/g tissue
same,"% Injected dose/g tissue, Heart",[2]; 30 min after injection,1.39±0.10 % Injected dose/g tissue
same,"% Injected dose/g tissue, Kidney",[2]; 30 min after injection,4.83±0.77 % Injected dose/g tissue
same,"% Injected dose/g tissue, Liver",[2]; 30 min after injection,9.87±0.80 % Injected dose/g tissue
same,"% Injected dose/g tissue, Lung",[2]; 30 min after injection,6.06±0.31 % Injected dose/g tissue
same,"% Injected dose/g tissue, Muscle",[2]; 30 min after injection,0.82±0.07 % Injected dose/g tissue
same,"% Injected dose/g tissue, Pancreas",[2]; 30 min after injection,4.68±0.51 % Injected dose/g tissue
same,"% Injected dose/g tissue, S. intestine",[2]; 30 min after injection,5.33±1.20 % Injected dose/g tissue
same,"% Injected dose/g tissue, Spleen",[2]; 30 min after injection,3.64±0.14 % Injected dose/g tissue
same,"% Injected dose/g tissue, Blood",[2]; 60 min after injection,0.57±0.05 % Injected dose/g tissue
same,"% Injected dose/g tissue, Brain",[2]; 60 min after injection,1.85±0.10 % Injected dose/g tissue
same,"% Injected dose/g tissue, Heart",[2]; 60 min after injection,1.02±0.08 % Injected dose/g tissue
same,"% Injected dose/g tissue, Kidney",[2]; 60 min after injection,3.74±0.20 % Injected dose/g tissue
same,"% Injected dose/g tissue, Liver",[2]; 60 min after injection,7.24±0.74 % Injected dose/g tissue
same,"% Injected dose/g tissue, Lung",[2]; 60 min after injection,4.13±0.15 % Injected dose/g tissue
same,"% Injected dose/g tissue, Muscle",[2]; 60 min after injection,0.66±0.05 % Injected dose/g tissue
same,"% Injected dose/g tissue, Pancreas",[2]; 60 min after injection,3.69±0.42 % Injected dose/g tissue
same,"% Injected dose/g tissue, S. intestine",[2]; 60 min after injection,4.53±1.21 % Injected dose/g tissue
same,"% Injected dose/g tissue, Spleen",[2]; 60 min after injection,2.89±0.90 % Injected dose/g tissue
same,"% Injected dose/g tissue, Blood",[3],0.88±0.10 % Injected dose/g tissue
same,"% Injected dose/g tissue, Cerebellum",[3],3.71±0.19 % Injected dose/g tissue
same,"% Injected dose/g tissue, Cerebral cortex",[3],4.59±0.25 % Injected dose/g tissue
same,"% Injected dose/g tissue, Hippocampus",[3],4.05±0.52 % Injected dose/g tissue
same,"% Injected dose/g tissue, Hypothalamus",[3],3.51±0.60 % Injected dose/g tissue
same,"% Injected dose/g tissue, Medulla oblongata",[3],4.23±0.08 % Injected dose/g tissue
same,"% Injected dose/g tissue, Midbrain",[3],4.09±0.52 % Injected dose/g tissue
same,"% Injected dose/g tissue, Striatum",[3],4.03±0.45 % Injected dose/g tissue
same,"% Injected dose/g tissue, Whole brain",[3],4.23±0.23 % Injected dose/g tissue
same,percentage of the unchanged form in the brain,[4]; 15 min after injection,95.4±1.9%
same,percentage of the unchanged form in the plasma,[4]; 15 min after injection,40.5±7.1%
same,percentage of the unchanged form in the brain,[4]; 30 min after injection,97.4±0.8%
same,percentage of the unchanged form in the plasma,[4]; 30 min after injection,26.8±6.6% and 26.8%
